Counter-ions that a name gives are not always drawn. Like-named read-outs stand apart in the source and are kept apart here.
How the values were obtained:
[1] = target: GST-Syk Full Protein (human) (Homo sapiens, UniProt P43405); experiment: Syk kinase inhibition test (HTRF method); format: biochemical
Procedure, shortened: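 Human GST-Syk full-length (6.4 nM) phosphorylated biotin-EDPDYEWPSA-NH2 (250 nM) with 100 μM ATP in HEPES pH 7.0/MgCl2 buffer, 2% DMSO, 30 min at room temperature. EDTA stop, then HTRF detection (streptavidin-XL665, Eu anti-phosphotyrosine) after 1 h; 665/620 ratio read.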

[2] = tested on: cultured human mast cells; experiment: Degranulation inhibition test using cultured human mast cells (IgE cross-linking, β-Hexosaminidase release); format: cell-based; details: Mast cell, cultured human mast cells, read-out: human degranulation ave. IC50
Procedure, shortened: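 CD34+ cord-blood cells cultured ≥8 weeks with SCF/IL-6/IL-3; FcεRI primed 5 days with rhIL-4 (1 ng/mL) and hIgE (0.5 μg/mL). Compound (0.1% DMSO) preincubated 10 min at 37 °C, then anti-IgE (final 10 μg/mL) 30 min; released β-hexosaminidase read at 405 nm versus total lysate, IC50 (M).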

[3] = HTRF, 100 μM ATP, 30 min room temperature, average, read-out: sykHTRF ave IC50
[4] = anti-hIgE stimulation, β-Hexosaminidase index, average
[5] = Tables 1-x, compounds A, read-out: sykHTRF ave IC50
[6] = Tables 2-x, thiophene compounds B, read-out: sykHTRK ave IC50
[7] = Tables 2-x, thiophene compounds B

SMILES	IC50 [1, 3] [µM]	IC50 [2, 4] [µM]	IC50 [1, 5] [µM]	IC50 ([2]; Tables 1-x, compounds A) [µM]	further results
COc1ccc(C[C@H](N)c2ncc(-c3cccc(Nc4cc(C)ccn4)n3)s2)cc1 [Compound A-134]	0.1 to 1	> 1			
Cc1ccnc(Nc2cccc(-c3cnc(COC(=O)NCC4(O)CCCCC4)s3)n2)c1 [Compound A-195]	0.1 to 1	0.1 to 1			
CCOC(=O)c1nc([C@H](C)NC(C)=O)sc1-c1cccc(Nc2cc(C)ccn2)n1 [Compound A-102]	> 1	> 1			
CO[C@@H]1CCN(c2ncc(-c3cccc(Nc4cc(C)ccn4)n3)s2)C1 [Compound A-490, N-{6-[2-((R)-3-methoxypyrrolidin-1-yl)thiazol-5-yl]pyridin-2-yl}-N-(4-methylpyridin-2-yl)amine]			< 0.1	0.1 to 1	
Cc1ccnc(Nc2cccc(-c3cnc(CNCCO)s3)n2)c1 [Compound A-216]	0.1 to 1	> 1			
CC(=O)NC(C)(C)Cc1ncc(-c2cccc(Nc3cc(C)ccn3)n2)s1 [Compound A-334, N-(1,1-dimethyl-2-{5-[6-(4-methylpyridin-2-ylamino)pyridin-2-yl]thiazol-2-yl}ethyl)acetamide]	< 0.1	< 0.1			
Cc1ccnc(Nc2cccc(-c3cnc([C@H]4CC[C@H](c5noc(=O)[nH]5)CC4)s3)n2)c1 [Compound A-325, 3-(trans-4-{5-[6-(4-methylpyridin-2-ylamino)pyridin-2-yl]thiazol-2-yl}cyclohexyl)-4H-[1,2,4]oxazol-5-one]	< 0.1	0.1 to 1			
Cc1ccnc(Nc2cccc(-c3ccc(C(=O)NCC(C)O)s3)n2)c1 (centres unmarked) [Compound B-41]					IC50 [1, 6]: 0.1 to 1 µM; IC50 [2, 7]: 0.1 to 1 µM
Cc1ccnc(Nc2cccc(-c3cnc([C@@H]4COC(=O)N4CC(=O)O)s3)n2)c1 [Compound A-407]			> 1	> 1	
Cc1ccnc(Nc2cccc(-c3ccc(C4=NC(C)(C)CO4)s3)n2)c1 [Compound B-39]					IC50 [1, 6]: 0.1 to 1 µM; IC50 [2, 7]: > 1 µM
Cc1ccnc(Nc2cccc(-c3cnc(CC4CCC(C(=O)O)CC4)s3)n2)c1 (centres unmarked) [Compound A-249]	0.1 to 1	0.1 to 1			
CC(=O)NCc1ncc(-c2cccc(Nc3cc(C)ccn3)n2)s1 [Compound A-143]	0.1 to 1	0.1 to 1			
Cc1ccnc(Nc2cccc(-c3cnc([C@H]4CC[C@H](C(=O)N5CCC[C@@H]5CO)CC4)s3)n2)c1 [Compound A-286, ((R)-2-hydroxymethylpyrrolidin-1-yl)-(trans-4-{5-[6-(4-methylpyridin-2-ylamino)pyridin-2-yl]thiazol-2-yl}cyclohexyl)metanone]	< 0.1	0.1 to 1			
Cc1ccnc(Nc2cccc(-c3cnc(N4CCN(C(=O)C5CCC(O)CC5)CC4)s3)n2)c1 (centres unmarked) [Compound A-413]			0.1 to 1	0.1 to 1	
Cc1ccnc(Nc2cccc(-c3cnc([C@H](CO)NC(=O)c4ccc(O)cc4)s3)n2)c1 [Compound A-394]			0.1 to 1	0.1 to 1	
CC(=O)c1cc(C)c(-c2cccc(Nc3cc(C)ccn3)n2)s1 [Compound B-6]					IC50 [1, 6]: 0.1 to 1 µM; IC50 [2, 7]: 0.1 to 1 µM
Cc1ccnc(Nc2cccc(-c3cnc(N4CCC(O)CC4)s3)n2)c1 [Compound A-433, 1-{5-[6-(4-methylpyridin-2-ylamino)pyridin-2-yl]thiazol-2-yl}piperidin-4-ol]			< 0.1	< 0.1	
Cc1ccnc(Nc2cccc(-c3cnc(CN4CCCCC4=O)s3)n2)c1 [Compound A-401]			> 1	0.1 to 1	
Cc1ccnc(Nc2cccc(-c3cnc(Cc4ccc(C(=O)O)cc4)s3)n2)c1 [Compound A-224]	0.1 to 1	> 1			
Cc1ccnc(Nc2cccc(-c3cnc([C@H](C)O)s3)n2)c1 [Compound A-26, (S)-1-{5-[6-(4-methylpyridin-2-ylamino)pyridin-2-yl]thiazol-2-yl}ethanol]	< 0.1	0.1 to 1			
Cc1ccnc(Nc2cccc(-c3cnc(CN4CC(=O)NC(=O)C4)s3)n2)c1 [Compound A-383, 4-{5-[6-(4-methylpyridin-2-ylamino)pyridin-2-yl]thiazol-2-ylmethyl}piperazine-2,6-dione]			< 0.1	0.1 to 1	
Cc1ccnc(Nc2cccc(-c3cnc(N4CCC(CNC(=O)CO)CC4)s3)n2)c1 [Compound A-486, 2-hydroxy-N-(1-{5-[6-(4-methylpyridin-2-ylamino)pyridin-2-yl]thiazol-2-yl}piperidin-4-ylmethyl)acetamide]			< 0.1	0.1 to 1	
CNC(=O)C1CCN(c2ncc(-c3cccc(Nc4cc(OC)ccn4)n3)s2)CC1 [Compound A-436, N-methyl-1-{5-[6-(4-methoxypyridin-2-ylamino)pyridin-2-yl]thiazol-2-yl}piperidine-4-carboxamide]			< 0.1	0.1 to 1	
Cc1ccnc(Nc2cccc(-c3cnc(C4CCN(C(=O)c5ccc(O)cc5)CC4)s3)n2)c1 [Compound A-378]			0.1 to 1	0.1 to 1	
Cc1ccnc(Nc2cccc(-c3ccc(-c4nnn[nH]4)s3)n2)c1 [Compound B-95]					IC50 [1, 6]: 0.1 to 1 µM; IC50 [2, 7]: > 1 µM
CC(=O)O/N=C(\C)c1ccc(-c2cccc(Nc3cc(C)ccn3)n2)s1 [Compound B-86]					IC50 [1, 6]: 0.1 to 1 µM; IC50 [2, 7]: 0.1 to 1 µM
Cc1ccnc(Nc2cccc(-c3ccc(CO)s3)n2)c1 [Compound B-12, {5-[6-(4-methylpyridin-2-ylamino)pyridin-2-yl]thiophen-2-yl}methanol]					IC50 [1, 6]: < 0.1 µM; IC50 [2, 7]: 0.1 to 1 µM
CC(=O)c1ccc(-c2cccc(Nc3cc(OCCO)ccn3)n2)s1 [Compound B-73, 1-(5-{6-[4-(2-hydroxyethoxy)pyridin-2-ylamino]pyridin-2-yl}thiophen-2-yl)ethanone]					IC50 [1, 6]: < 0.1 µM; IC50 [2, 7]: 0.1 to 1 µM
Cc1ccnc(Nc2cccc(-c3cnc(C(C)(C)CC(=O)O)s3)n2)c1 [Compound A-145]	0.1 to 1	> 1			
CC(=O)N[C@@H]1CCN(c2ncc(-c3cccc(Nc4cc(C)ccn4)n3)s2)C1 [Compound A-472, N—((R)-1-{5-[6-(4-methylpyridin-2-ylamino)pyridin-2-yl]thiazol-2-yl}pyrrolidin-3-yl)acetamide]			< 0.1	0.1 to 1	

The next lines start with results.

IC50 [1, 3] [µM]	IC50 [2, 4] [µM]	IC50 [1, 5] [µM]	IC50 ([2]; Tables 1-x, compounds A) [µM]	SMILES	further results
		< 0.1	< 0.1	Cc1ccnc(Nc2cccc(-c3cnc(N(CCO)CCO)s3)n2)c1 [Compound A-544, 2-(N-(2-hydroxyethyl)-N-{5-[6-(4-methylpyridin-2-ylamino)pyridin-2-yl]thiazol-2-yl}amino)ethanol]	
		< 0.1	0.1 to 1	Cc1ccnc(Nc2cccc(-c3cnc(N4CCCC(CO)C4)s3)n2)c1 (centres unmarked) [Compound A-498, (1-{5-[6-(4-methylpyridin-2-ylamino)pyridin-2-yl]thiazol-2-yl}piperidin-3-yl)methanol]	
		< 0.1	> 1	Cc1ccnc(Nc2cccc(-c3cnc(N(C)CC(=O)N[C@H](C(=O)O)C(C)C)s3)n2)c1 [Compound A-568, (S)-3-methyl-2-[2-(N-methyl-N-{5-[6-(4-methylpyridin-2-ylamino)pyridin-2-yl]thiazol-2-yl}amino)acetylamino]butyric acid dihydrochloride]	
		< 0.1	> 1	Cc1ccnc(Nc2cccc(-c3cnc(N(C)CC(=O)N(C)CC(=O)O)s3)n2)c1 [Compound A-580, {N-methyl-N-[2-(N′-methyl-N′-{5-[6-(4-methylpyridin-2-ylamino)pyridin-2-yl]thiazol-2-yl}amino)acetyl]amino}acetic acid dihydrochloride]	
		< 0.1	0.1 to 1	Cc1ccnc(Nc2cccc(-c3cnc(N4CCc5cc(C(=O)O)ccc5C4)s3)n2)c1 [Compound A-607, 2-{5-[6-(4-methylpyridin-2-ylamino)pyridin-2-yl]thiazol-2-yl}-1,2,3,4-tetrahydroisoquinoline-6-carboxylic acid]	
		< 0.1	> 1	Cc1ccnc(Nc2cccc(-c3cnc(N(C)c4ccc(CC(=O)O)cc4)s3)n2)c1 [Compound A-617, [4-(N-methyl-N-{5-[6-(4-methylpyridin-2-ylamino)pyridin-2-yl]thiazol-2-yl}amino)phenyl]acetic acid dihydrochloride]	
		< 0.1	< 0.1	NC(=O)C1CCN(c2ncc(-c3cccc(Nc4cc(Cl)ccn4)n3)s2)CC1 [Compound A-518, 1-{5-[6-(4-chloropyridin-2-ylamino)pyridin-2-yl]thiazol-2-yl}piperidine-4-carboxamide]	
		< 0.1	0.1 to 1	Cc1ccnc(Nc2cccc(-c3cnc(N(C)[C@H]4CC[C@@H](C(=O)O)CC4)s3)n2)c1 [Compound A-591, cis-4-(N-methyl-N-{5-[6-(4-methylpyridin-2-ylamino)pyridin-2-yl]thiazol-2-yl}amino)cyclohexanecarboxylic acid]	
		< 0.1	0.1 to 1	COc1cc(C(=O)O)ccc1CN(C)c1ncc(-c2cccc(Nc3cc(C)ccn3)n2)s1 [Compound A-606, 3-methoxy-4-[(N-methyl-N-{5-[6-(4-methylpyridin-2-ylamino)pyridin-2-yl]thiazol-2-yl}amino)methyl]benzoic acid dihydrochloride]	
		< 0.1	0.1 to 1	Cc1ccnc(Nc2cccc(-c3cnc(N(C)[C@H]4CC[C@H](C(=O)O)CC4)s3)n2)c1 [Compound A-592, trans-4-(N-methyl-N-{5-[6-(4-methylpyridin-2-ylamino)pyridin-2-yl]thiazol-2-yl}amino)cyclohexanecarboxylic acid]	
